The text below walks through data of patent US20230138984A1, “HA-PACLITAXEL CONJUGATE FOR TREATMENT OF MESOTHELIOMA” (FIDIA FARMACEUTICI S.p.A., priority 2020, published 2023).

The test system of experiment [1] is human mesothelioma H2052 cells. As to conditions: for average luminescence of tumor zone: weekly, order of magnitude, compared with untreated 1x10^12 on the 100° day. The source says:
The cell lines of human mesothelioma H2052 were transduced with a lentiviral vector (method by which the genes can be inserted into cells using the lentivirus) containing a bidirectional promoter allowing the high and coordinated expression of two reporter genes for the synthesis of luciferase and eGFP (enhanced Green Fluorescent Protein), as described in Amendola et al., Nat Biotechnol 2005, 23:108-16: luciferase is an enzyme that catalyzes the oxidation of luciferin which oxidizing emits energy ([…]) in the form of light radiation and such reaction has an ultra-high sensitivity; the eGFP derives from the jellyfish Aequorea victoria, and it is capable of emitting bright green light when exposed to certain wavelengths; both such proteins are used below as a “marker system” for human mesothelioma cells H2052 transduced as above, in order to identify the tumor mass that is formed in animals injected with such cells and to determine its dimensions and the growth over time through suitable bioluminescence sensor.
Cells were incubated for 6 hours in a mixture of complete medium (RPMI + 10% FBS, 1% HEPES, L-glutamine and penicillin/streptomycin) containing the above-mentioned vector and protamine sulphate. At the end of 6 hours of incubation, supernatants were re-integrated with complete medium. After 5 days, the effect of the transduction was evaluated through flow cytometry.
Cells were then expanded and sub-divided in order to isolate the population with the higher expression of reporter genes.
All treated animals were monitored through detection of bioluminescence emitted by their tumor zone treated with HA-paclitaxel conjugate, in order to assess over time, the dimension (and therefore the growth) of the tumor with reference to animals untreated with any chemotherapeutic agent and to those treated with non-conjugated paclitaxel.

The subject of the next experiment is H28 cells. Briefly: MTT cytotoxicity assay on mesothelioma cell line H28. Conditions: Homo sapiens, NCI-H28, 48 h, read-out: Normalized IC50. On the technique in general: Tetrazolium dyes change colour on reduction, which living cells bring about.
The subject of the next experiment is H2052 cells. Briefly: MTT cytotoxicity assay on mesothelioma cell line H2052. As to conditions: Homo sapiens, NCI-H2052, 48 h, read-out: Normalized IC50.
A further experiment has as its system H2452 cells. Briefly: MTT cytotoxicity assay on mesothelioma cell line H2452. Conditions: Homo sapiens, NCI-H2452, 48 h, read-out: Normalized IC50.

In brackets after ≈: the same amount, converted by molar mass. Read-outs that look alike come from different tables or passages of the source.

Regarding `CC(=O)O[C@H]1C(=O)[C@@]2(C)[C@H]([C@H](OC(=O)c3ccccc3)[C@]3(O)C[C@H](OC(=O)[C@H](O)[C@@H](NC(=O)c4ccccc4)c4ccccc4)C(C)=C1C3(C)C)[C@]1(OC(C)=O)CO[C@@H]1C[C@@H]2O` [paclitaxel], the “average luminescence of tumor zone” value in experiment [1] (2° sample: 10 mg/Kg iv for 3 treatments then ip) and in experiment [1] (3° sample: 10 mg/Kg ip) was ~1x10^11 Ph/sec in each case. Moreover, the “bioluminescence emitted by treated tumor zone” value in experiment [1] (non-conjugated paclitaxel 10 mg/Kg, after 139 days of observation (FIG. 2)) is “around 12x10^11 Ph/sec”. The IC50 (usually the concentration needed to halve the response being measured) in the experiment on H28 cells was found to be 0.787 µg/mL (≈ 0.922 µM); with H2052 cells, 0.225 µg/mL (≈ 0.263 µM); in the experiment on H2452 cells, 0.8 µg/mL (≈ 0.937 µM).
